Laboratory results published in paper PMC8766756, “Insights on Cancer Cell Inhibition, Subcellular Activities, and Kinase Profile of Phenylacetamides Pending 1H-Imidazol-5-One Variants” (Frontiers in Pharmacology, 2022).
“And” between values parts separate entries of the source, which are not always exact repeats. Equal values may be shown once.

Columns and labels:
Test in all cases: PamChip tyrosine kinase microarray
Type in all cases: biochemical
Conditions in all cases: 0.1 µM, HL60 lysate
FGFR2 (P21802) = biological target: T1, FGFR2 (P21802) (Homo sapiens, UniProt P21802)
T1 construct: purchased PamGene (PamChip PTK array, Upstream Kinase Analysis)
T1 sequence (P21802 22-821): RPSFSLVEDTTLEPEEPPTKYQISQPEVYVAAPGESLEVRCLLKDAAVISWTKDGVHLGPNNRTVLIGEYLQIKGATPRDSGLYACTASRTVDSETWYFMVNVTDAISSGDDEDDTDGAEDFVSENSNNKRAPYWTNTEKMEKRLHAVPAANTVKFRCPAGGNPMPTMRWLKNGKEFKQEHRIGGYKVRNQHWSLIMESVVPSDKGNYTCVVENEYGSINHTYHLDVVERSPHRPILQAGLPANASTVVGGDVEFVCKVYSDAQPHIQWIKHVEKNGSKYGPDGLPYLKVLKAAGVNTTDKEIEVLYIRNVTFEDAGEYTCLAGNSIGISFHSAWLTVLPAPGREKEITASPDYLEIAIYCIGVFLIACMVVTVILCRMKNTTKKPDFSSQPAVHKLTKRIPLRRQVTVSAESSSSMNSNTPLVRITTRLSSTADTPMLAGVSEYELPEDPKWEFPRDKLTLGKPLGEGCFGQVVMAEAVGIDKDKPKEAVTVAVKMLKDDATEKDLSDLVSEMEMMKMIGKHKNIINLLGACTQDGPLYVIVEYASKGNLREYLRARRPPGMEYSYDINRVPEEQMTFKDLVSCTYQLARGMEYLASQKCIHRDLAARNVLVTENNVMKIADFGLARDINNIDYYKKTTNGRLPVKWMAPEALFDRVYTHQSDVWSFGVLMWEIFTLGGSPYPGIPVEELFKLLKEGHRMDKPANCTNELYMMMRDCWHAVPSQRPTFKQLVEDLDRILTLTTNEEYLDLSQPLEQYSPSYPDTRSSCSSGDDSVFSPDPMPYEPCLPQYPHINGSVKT
Outline: (§1)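 HL60 (AML) cell lysate was spiked with compound at 0.001, 0.01, 0.1, 1, 10 and 50 µM, or 2% v/v DMSO as control, then profiled in technical replicates on a tyrosine kinase peptide array of 196 phosphosites. Kinase activity was inferred from peptide-set changes using an upstream kinase tool.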

CTK (P42679) = biological target: T2, CTK (P42679) (Homo sapiens, UniProt P42679)
T2 construct: purchased PamGene (PamChip PTK array, Upstream Kinase Analysis)
T2 sequence (P42679 1-507): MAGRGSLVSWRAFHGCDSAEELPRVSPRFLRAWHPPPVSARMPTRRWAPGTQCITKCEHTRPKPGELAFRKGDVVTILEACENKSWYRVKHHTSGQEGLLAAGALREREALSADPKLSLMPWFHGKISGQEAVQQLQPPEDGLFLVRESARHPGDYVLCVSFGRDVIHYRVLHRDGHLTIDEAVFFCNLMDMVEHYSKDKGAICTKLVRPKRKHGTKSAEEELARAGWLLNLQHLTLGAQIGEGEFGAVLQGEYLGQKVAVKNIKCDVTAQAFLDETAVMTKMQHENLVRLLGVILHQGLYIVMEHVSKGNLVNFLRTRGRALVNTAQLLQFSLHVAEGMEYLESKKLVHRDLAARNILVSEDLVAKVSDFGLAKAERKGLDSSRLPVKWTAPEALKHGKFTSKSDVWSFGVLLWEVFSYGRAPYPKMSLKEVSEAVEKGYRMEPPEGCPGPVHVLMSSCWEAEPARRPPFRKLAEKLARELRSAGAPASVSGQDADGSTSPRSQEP
Outline: as §1

Yes (P07947) = biological target: T3, Yes (P07947) (Homo sapiens, UniProt P07947)
T3 construct: purchased PamGene (PamChip PTK array, Upstream Kinase Analysis)
T3 sequence (P07947 whole entry): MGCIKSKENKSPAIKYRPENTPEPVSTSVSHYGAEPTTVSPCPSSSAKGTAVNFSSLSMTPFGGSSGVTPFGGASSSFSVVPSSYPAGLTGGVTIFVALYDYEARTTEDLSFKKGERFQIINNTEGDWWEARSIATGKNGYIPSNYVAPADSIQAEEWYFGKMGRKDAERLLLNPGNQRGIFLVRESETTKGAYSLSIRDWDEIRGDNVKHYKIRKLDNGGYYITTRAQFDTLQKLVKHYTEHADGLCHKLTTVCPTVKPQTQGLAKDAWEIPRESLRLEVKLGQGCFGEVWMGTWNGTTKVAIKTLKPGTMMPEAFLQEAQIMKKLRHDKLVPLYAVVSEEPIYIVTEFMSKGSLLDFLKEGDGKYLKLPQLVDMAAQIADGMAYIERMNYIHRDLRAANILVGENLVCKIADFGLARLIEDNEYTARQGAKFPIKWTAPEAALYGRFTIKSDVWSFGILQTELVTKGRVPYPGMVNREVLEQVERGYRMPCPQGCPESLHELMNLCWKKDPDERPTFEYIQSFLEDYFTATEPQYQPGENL
Outline: as §1

TRKB (Q16620) = biological target: T4, TRKB (Q16620) (Homo sapiens, UniProt Q16620)
T4 construct: purchased PamGene (PamChip PTK array, Upstream Kinase Analysis)
T4 sequence (Q16620 32-822): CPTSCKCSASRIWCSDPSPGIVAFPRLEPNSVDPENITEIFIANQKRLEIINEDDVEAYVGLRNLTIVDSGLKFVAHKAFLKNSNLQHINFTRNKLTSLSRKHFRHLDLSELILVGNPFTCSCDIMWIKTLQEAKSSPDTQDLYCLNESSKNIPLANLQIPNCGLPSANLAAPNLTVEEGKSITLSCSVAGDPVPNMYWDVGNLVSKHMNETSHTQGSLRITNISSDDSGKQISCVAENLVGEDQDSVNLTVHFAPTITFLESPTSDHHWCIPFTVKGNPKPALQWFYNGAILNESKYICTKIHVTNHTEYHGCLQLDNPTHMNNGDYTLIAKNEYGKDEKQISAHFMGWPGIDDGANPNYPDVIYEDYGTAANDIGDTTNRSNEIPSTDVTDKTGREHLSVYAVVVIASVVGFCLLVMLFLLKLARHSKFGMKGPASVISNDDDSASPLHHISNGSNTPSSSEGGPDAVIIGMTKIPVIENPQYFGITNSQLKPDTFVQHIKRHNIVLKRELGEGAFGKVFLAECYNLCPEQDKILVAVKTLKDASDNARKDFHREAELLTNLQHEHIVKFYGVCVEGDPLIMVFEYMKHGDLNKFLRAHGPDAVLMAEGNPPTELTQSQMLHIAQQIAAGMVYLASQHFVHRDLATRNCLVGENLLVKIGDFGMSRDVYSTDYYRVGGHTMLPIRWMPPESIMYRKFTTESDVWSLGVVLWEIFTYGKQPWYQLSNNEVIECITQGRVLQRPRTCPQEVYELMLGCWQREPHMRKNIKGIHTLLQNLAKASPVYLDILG
Outline: as §1

KDR (P35968) = biological target: T5, KDR (P35968) (Homo sapiens, UniProt P35968)
T5 construct: purchased PamGene (PamChip PTK array, Upstream Kinase Analysis)
Outline: as §1

FGFR1 (P11362) = biological target: T6, FGFR1 (P11362) (Homo sapiens, UniProt P11362)
T6 construct: purchased PamGene (PamChip PTK array, Upstream Kinase Analysis)
Outline: as §1

EphA2 (P29317) = biological target: T7, EphA2 (P29317) (Homo sapiens, UniProt P29317)
T7 construct: purchased PamGene (PamChip PTK array, Upstream Kinase Analysis)
Outline: as §1

RYK (H0Y8A4) = biological target: T8, RYK (H0Y8A4) (Homo sapiens, UniProt P34925)
T8 construct: purchased PamGene (PamChip PTK array, Upstream Kinase Analysis)
T8 sequence (P34925 26-607, one chain of several): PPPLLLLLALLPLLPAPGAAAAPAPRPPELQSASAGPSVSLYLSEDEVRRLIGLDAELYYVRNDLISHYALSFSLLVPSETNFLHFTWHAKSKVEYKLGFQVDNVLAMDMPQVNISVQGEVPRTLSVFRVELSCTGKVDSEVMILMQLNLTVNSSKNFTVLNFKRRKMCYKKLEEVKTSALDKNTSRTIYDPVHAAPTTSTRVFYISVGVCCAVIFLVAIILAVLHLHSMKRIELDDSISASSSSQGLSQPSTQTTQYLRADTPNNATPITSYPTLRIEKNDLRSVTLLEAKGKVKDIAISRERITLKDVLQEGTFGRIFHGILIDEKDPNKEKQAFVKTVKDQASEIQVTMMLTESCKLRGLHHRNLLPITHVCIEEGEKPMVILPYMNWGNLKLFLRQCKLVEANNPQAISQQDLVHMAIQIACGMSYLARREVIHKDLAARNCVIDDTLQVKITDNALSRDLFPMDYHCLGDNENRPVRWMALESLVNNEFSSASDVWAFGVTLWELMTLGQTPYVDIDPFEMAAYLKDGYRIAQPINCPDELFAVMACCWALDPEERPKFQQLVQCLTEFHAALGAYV
Outline: as §1

Fes (P07332) = biological target: T9, Fes (P07332) (Homo sapiens, UniProt P07332)
T9 construct: purchased PamGene (PamChip PTK array, Upstream Kinase Analysis)
T9 sequence (P07332 whole entry): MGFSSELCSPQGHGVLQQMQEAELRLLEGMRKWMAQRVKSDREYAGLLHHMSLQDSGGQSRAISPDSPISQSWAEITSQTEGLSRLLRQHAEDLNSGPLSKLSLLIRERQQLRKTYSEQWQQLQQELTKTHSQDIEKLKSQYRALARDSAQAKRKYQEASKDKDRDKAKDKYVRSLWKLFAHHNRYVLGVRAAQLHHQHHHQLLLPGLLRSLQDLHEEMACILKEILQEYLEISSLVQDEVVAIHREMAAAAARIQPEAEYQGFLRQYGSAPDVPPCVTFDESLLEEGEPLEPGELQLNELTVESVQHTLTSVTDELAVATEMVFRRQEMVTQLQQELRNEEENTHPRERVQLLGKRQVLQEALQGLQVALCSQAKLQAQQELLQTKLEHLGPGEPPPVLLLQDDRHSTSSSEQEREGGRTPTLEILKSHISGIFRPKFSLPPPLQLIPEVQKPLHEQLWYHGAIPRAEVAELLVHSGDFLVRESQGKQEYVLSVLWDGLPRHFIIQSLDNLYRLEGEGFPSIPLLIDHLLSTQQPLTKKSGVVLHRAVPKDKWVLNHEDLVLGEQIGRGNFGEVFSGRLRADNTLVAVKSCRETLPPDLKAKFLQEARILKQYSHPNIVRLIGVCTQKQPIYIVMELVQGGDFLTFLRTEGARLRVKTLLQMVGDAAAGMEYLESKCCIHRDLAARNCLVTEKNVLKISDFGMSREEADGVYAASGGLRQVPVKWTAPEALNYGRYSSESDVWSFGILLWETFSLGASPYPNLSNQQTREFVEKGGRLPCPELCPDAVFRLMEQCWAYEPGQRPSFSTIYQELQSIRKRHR
Outline: as §1

FAK2 (Q14289) = biological target: T10, FAK2 (Q14289) (Homo sapiens, UniProt Q14289)
T10 construct: purchased PamGene (PamChip PTK array, Upstream Kinase Analysis)
T10 sequence (Q14289 whole entry): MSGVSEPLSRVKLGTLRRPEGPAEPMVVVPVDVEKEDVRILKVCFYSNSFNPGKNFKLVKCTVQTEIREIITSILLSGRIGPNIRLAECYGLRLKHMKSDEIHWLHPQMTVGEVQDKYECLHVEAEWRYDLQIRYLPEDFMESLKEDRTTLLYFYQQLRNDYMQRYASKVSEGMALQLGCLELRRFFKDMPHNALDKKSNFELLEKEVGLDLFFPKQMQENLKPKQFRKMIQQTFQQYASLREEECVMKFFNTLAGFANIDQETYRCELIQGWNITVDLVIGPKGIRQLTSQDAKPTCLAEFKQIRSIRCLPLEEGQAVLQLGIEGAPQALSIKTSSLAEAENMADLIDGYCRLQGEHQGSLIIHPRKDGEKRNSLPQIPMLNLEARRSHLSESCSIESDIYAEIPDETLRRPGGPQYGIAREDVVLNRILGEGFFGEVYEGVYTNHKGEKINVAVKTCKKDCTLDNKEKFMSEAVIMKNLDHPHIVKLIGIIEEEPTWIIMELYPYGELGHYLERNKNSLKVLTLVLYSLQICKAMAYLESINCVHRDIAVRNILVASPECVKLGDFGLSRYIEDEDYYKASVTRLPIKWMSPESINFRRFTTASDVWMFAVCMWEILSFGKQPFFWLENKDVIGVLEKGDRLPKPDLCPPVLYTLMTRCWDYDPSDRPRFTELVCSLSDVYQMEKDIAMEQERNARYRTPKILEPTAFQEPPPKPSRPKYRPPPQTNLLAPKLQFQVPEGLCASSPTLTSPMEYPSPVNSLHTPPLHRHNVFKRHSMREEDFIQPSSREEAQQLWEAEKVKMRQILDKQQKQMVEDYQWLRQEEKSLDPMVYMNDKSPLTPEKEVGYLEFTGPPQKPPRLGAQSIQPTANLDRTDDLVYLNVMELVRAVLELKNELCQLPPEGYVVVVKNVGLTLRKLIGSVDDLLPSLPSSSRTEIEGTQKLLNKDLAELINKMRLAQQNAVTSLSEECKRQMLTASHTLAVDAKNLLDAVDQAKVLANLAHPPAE
Outline: as §1

`COc1ccc(/C=C2\N=C(C)N(c3ccc(CC(=O)NCc4ccccc4)cc3)C2=O)cc1` [Compound 4c, (Z)-N-Benzyl-2-(4-(4-(4-methoxybenzylidene)-2-methyl-5-oxo-4,5-dihydro-1H-imidazol-1-yl)phenyl)acetamide] was tested, and the “Mean Final score (Kinase score)” value (FGFR2 (P21802)) was 2.386, the “Mean Kinase Statistic” value (FGFR2 (P21802)) was -1.189 and the “Mean Significance Score” value (FGFR2 (P21802)) was 2.048. The “Mean Specificity Score” value (FGFR2 (P21802)) was 0.3335, the “Mean Final score (Kinase score)” value (CTK (P42679)) was 2.298 and the “Mean Kinase Statistic” value (CTK (P42679)) was -1.147. The “Mean Significance Score” value (CTK (P42679)) was 2.048, the “Mean Specificity Score” value (CTK (P42679)) was 0.2322 and the “Mean Final score (Kinase score)” value (Yes (P07947)) was 1.8671. For the same molecule, the “Mean Kinase Statistic” value (Yes (P07947)) was -0.9897, the “Mean Significance Score” value (Yes (P07947)) was 1.824 and the “Mean Specificity Score” value (Yes (P07947)) was 0.04992. For the same molecule, the “Mean Final score (Kinase score)” value (TRKB (Q16620)) was 2.487, the “Mean Kinase Statistic” value (TRKB (Q16620)) was -1.25 and the “Mean Significance Score” value (TRKB (Q16620)) was 2.048. For the same molecule, the “Mean Specificity Score” value (TRKB (Q16620)) was 0.5169, the “Mean Final score (Kinase score)” value (KDR (P35968)) was 2.535 and the “Mean Kinase Statistic” value (KDR (P35968)) was -1.256. The “Mean Significance Score” value (KDR (P35968)) was 2.048, the “Mean Specificity Score” value (KDR (P35968)) was 0.5472 and the “Mean Final score (Kinase score)” value (FGFR1 (P11362)) was 1.92. The “Mean Kinase Statistic” value (FGFR1 (P11362)) was -0.994, the “Mean Significance Score” value (FGFR1 (P11362)) was 1.619 and the “Mean Specificity Score” value (FGFR1 (P11362)) was 0.1511. The “Mean Significance Score” value (EphA2 (P29317)) was 1.975, the “Mean Specificity Score” value (EphA2 (P29317)) was 0.9606 and the “Mean Final score (Kinase score)” value (EphA2 (P29317); listed as KIM-161) was 3.09 and 3.095. The “Mean Final score (Kinase score)” value (RYK (H0Y8A4)) was 2.574, the “Mean Kinase Statistic” value (RYK (H0Y8A4)) was -1.293 and the “Mean Significance Score” value (RYK (H0Y8A4)) was 2.048. For the same molecule, the “Mean Specificity Score” value (RYK (H0Y8A4)) was 0.5126, the “Mean Significance Score” value (Fes (P07332)) was 2.048 and the “Mean Specificity Score” value (Fes (P07332)) was 1.058. For the same molecule, the “Mean Final score (Kinase score)” value (Fes (P07332); listed as KIM-161) was 3.13 and 3.128, the “Mean Final score (Kinase score)” value (FAK2 (Q14289)) was 2.241 and the “Mean Kinase Statistic” value (FAK2 (Q14289)) was -1.142. For the same molecule, the “Mean Significance Score” value (FAK2 (Q14289)) was 2.048 and the “Mean Specificity Score” value (FAK2 (Q14289)) was 0.216.
